The numbers were not newly measured in patent US12201725B2, “Dry powder compositions of treprostinil prodrugs and methods of use thereof” (Insmed Incorporated, priority 2019, dated 2025), which cites them from elsewhere.

Series [1] relates to hypoxia-induced increase in right ventricular pulse pressure (RVPP). The following applies: inhaled, comparison, not tested in Example 5.
For series [2] the following is noted: guinea pigs, comparison, not tested in Example 6.

Like-named read-outs stand apart in the source and are kept apart here. Some results are limits rather than exact numbers.

Consider `CCCCC[C@H](O)CC[C@@H]1[C@H]2Cc3cccc(OCC(=O)O)c3C[C@H]2C[C@H]1O` [treprostinil], for which the “Duration of inhibition of the hypoxia-induced increase in RVPP” value in series [1] (highest dose 215 μg/kg) was 2 h; in series [1] (lower doses 15, 53, or 110 μg/kg), 1 h. For the same compound, the Timing of cough in series [2] (nebulized) is no more than 10 min. The “Threshold dose of inhaled TRE that causes cough” value in series [2] was 1.23 µg/kg.
